Values of other authors in patent US20260355230A1, “SODIUM BICARBONATE PRODUCT FOR CHILDBIRTH LABOR” (LAMINARIA GROUP AB, priority 2023, published 2026).

Key:
[1] = large amounts, particularly as an aqueous solution
[2] = 4.26 g sodium bicarbonate dissolved in water, oral

Q: Which results are given for O=C([O-])O.[Na+] [sodium bicarbonate]?
A: gastrointestinal side-effect [1]: acute gastrointestinal (GI) distress; pH in maternal blood [2]: increased significantly; fetal outcome ([2]; vs untreated group): a difference in fetal outcome was shown between the two groups; frequency of spontaneous vaginal deliveries ([2]; vs untreated group): substantially higher; AFL levels ([2]; vs untreated group, AFL >10.1 mmol/L): fell significantly
